Measured values from patent US6497862B2, “Composition for inhibiting body odor and uses thereof” (Kabushiki Kaisha Hayashibara, priority 2000, dated 2002).

Legend:
[1] = Panel test of body-odor-like smell, oleic acid heated (Experiment 1); design: key: +++: the same or higher level of odor; ++: slightly lower level of odor; +: clearly lower level of odor than that of the control system; settings: oleic acid heated at 105° C. for one hour; six panels, compared with control system
Method: (§1) One hundred milligrams of oleic acid as a fatty acid, 500 mg of cellulose powder, and 1.25 ml of 0.12 M phosphate buffer (pH 6.0) were placed in a 20-ml glass vial. To the glass vial were added 100 mg of either of crystalline trehalose hydrate, crystalline maltitol anhydride, crystalline sorbitol anhydride, crystalline sucrose anhydride, crystalline maltose anhydride, and crystalline neotrehalose hydride as test saccharides (throughout Experiments 1 to 6, these saccharides are designated as “trehalose”, “maltitol”, sorbitol”, “sucrose”, “maltose”, and “neotrehalose”, respectively), followed by sealing the glass vial with a butyl rubber. As a control system, there provided a glass vial, with no a test saccharide, which differed from the test glass vial on this point. These glass vials were heated at 105° C. for one hour, cooled to ambient temperature, and kept in an aluminum heat-block (abbreviated as “heat block, hereinafter”), which had been preheated to 80° C. After 5-minutes standing, two milliliters of a head space gas (abbreviated as “HSG”, hereinafter) were collected from each glass vial with a syringe.
(§2) Upon the HSG samples, the level of a body-odor-like smell was examined on a panel test consisting of six professional panels; the panels directly smelled the samples from each glass vial and judged the level of the smells for each samples with test saccharides based on the following four ranks, i.e., the same or higher level of odor (+++), slightly lower level of odor (++), clearly lower level of odor (+), and odorless (−) as compared with the control system. Summing up the data from the panels, the samples tested were totally evaluated.

[2] = Formation of 2-nonenal from 9-hexadecanoic acid by heating, GC of HSG (Experiment 3); settings: 9-hexadecanoic acid + 100 mg test saccharide, heated at 105° C. for one hour; control 25.7
Method: as §1
(§3) The collected HSG was analyzed for content of volatile aldehydes on gas chromatography (abbreviated as “GC” hereinafter) using “GAS CHROMATOGRAPH GC-14A”, as a GC apparatus; “CAPILLARY COLUMN SUPELCO-WAX”, having 0.25 mm in inner diameter, 60 m in length, and 0.25 μm in thickness, commercialized by Supelco Inc., Tokyo, Japan, as a column for analysis; helium gas at a flow rate of one ml/min as a carrier gas, under temperature conditions of 250° C. for injecting a sample and of a column thermostatic bath temperature being kept at 80° C. for five minutes and then increased up to 240° C. at a rate of 5° C./min. As standard specimens, propanal, butanal, and hexanal as volatile aldehydes were used. Based on the peak area obtained from gas chromatography for the standard specimens and HSG samples, the content of respective volatile aldehydes in HSG was calculated.
(§4) The content of 2-nonenal in HSG was measured by GC similarly as in Experiment 1 except that 9-hexadecanoic acid or palmitoleic acid was used as a fatty acid and 2-nonenal, a volatile aldehyde, was used as a standard substance. The level of body-odor-like smell, particularly with respect to KAREI-SHU, in each sample was evaluated by panel test in accordance with the method in Experiment 1.

[3] = Panel test of body-odor-like smell (KAREI-SHU), 9-hexadecanoic acid heated (Experiment 3); design: key: +++: the same or higher level of odor; ++: slightly lower level of odor; +: clearly lower level of odor than that of the control system; settings: compared with control system
Excerpt: as §2, §4

[4] = Panel test of body-odor-like smell (KAREI-SHU), linoleic acid heated (Experiment 2); design: key: +++: the same or higher level of odor; ++: slightly lower level of odor; +: clearly lower level of odor than that of the control system; settings: compared with control system
Excerpt: as §2
as §4, with “except that linoleic acid was” for “except that 9-hexadecanoic acid or palmitoleic acid was”, “level of a body-odor-like smell,” for “level of body-odor-like smell,”

[5] = Formation of volatile aldehydes from oleic acid by heating, GC analysis of head space gas (Experiment 1); settings: oleic acid 100 mg + 100 mg test saccharide, heated at 105° C. for one hour; for Content in HSG, Hexanal: control 0.08; for Content in HSG, Butanal: control 1.04; for Content in HSG, Propanal: control 9.41
Method: as §1, §3

[6] = Formation of 2-nonenal from linoleic acid by heating, GC of HSG (Experiment 2); settings: linoleic acid + 100 mg test saccharide, heated at 105° C. for one hour; control 5.75
Method: as §1, §3
as §4, with “except that linoleic acid was” for “except that 9-hexadecanoic acid or palmitoleic acid was”, “level of a body-odor-like smell,” for “level of body-odor-like smell,”

Compound	Evaluation of panel test [1]	Content of 2-nonenal in HSG [2]	Evaluation of panel test [3]	Evaluation of panel test [4]	Content in HSG, Hexanal [5]	Content in HSG, Butanal [5]	Content in HSG, Propanal [5]	Content of 2-nonenal in HSG [6]
OC[C@H]1O[C@H](O[C@H]2[C@H](O)[C@@H](O)C(O)O[C@@H]2CO)[C@H](O)[C@@H](O)[C@@H]1O (mixture of isomers) [Maltose, maltose]	+++	24.2 µg/mL	+++	+++	0.07 µg/mL	1.38 µg/mL	9.09 µg/mL	4.60 µg/mL
OC[C@H]1O[C@@H](O[C@H]2O[C@H](CO)[C@@H](O)[C@H](O)[C@H]2O)[C@H](O)[C@@H](O)[C@@H]1O [Neotrehalose, neotrehalose]	+++	25.7 µg/mL	+++	+++	0.08 µg/mL	1.25 µg/mL	8.89 µg/mL	5.64 µg/mL
OC[C@@H](O)[C@@H](O)[C@H](O)[C@@H](O)CO [Sorbitol, sorbitol]	+++	23.6 µg/mL	+++	+++	0.06 µg/mL	1.06 µg/mL	8.31 µg/mL	5.12 µg/mL
